Results as given in PubChem BioAssay (NCI).
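Tested at 5 concentrations; 48 h exposure; 96-well plates; endpoints linearly interpolated, else capped at highest concentration. TGI denotes the concentration required for complete inhibition of growth.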

Tests used:
Test in all cases: NCI-60 cell line screen, 48 h
HCC-2998 colon = test system: HCC-2998 colon
HL-60(TB) leukemia = test system: HL-60(TB) leukemia
NCI-H522 lung = test system: NCI-H522 lung
OVCAR-8 ovarian = test system: OVCAR-8 ovarian
SNB-19 CNS = test system: SNB-19 CNS
SNB-75 CNS = test system: SNB-75 CNS
TK-10 renal = test system: TK-10 renal
U251 CNS = test system: U251 CNS
UO-31 renal = test system: UO-31 renal
HS 578T breast = test system: HS 578T breast
MDA-MB-231 breast = test system: MDA-MB-231 breast

SMILES	TGI (HCC-2998 colon)	TGI (HL-60(TB) leukemia)	TGI (NCI-H522 lung)	TGI (OVCAR-8 ovarian)	TGI (SNB-19 CNS)	TGI (SNB-75 CNS)	TGI (TK-10 renal)	TGI (U251 CNS)	TGI (UO-31 renal)	TGI (HS 578T breast)	TGI (MDA-MB-231 breast)
O=C(Cc1csc(-c2nc(CC(=O)NNc3ccccc3)cs2)n1)NNc1ccccc1	> 100 µM	> 100 µM	43.5 µM	> 100 µM	> 100 µM	> 100 µM	> 100 µM	> 100 µM	> 100 µM		
CCOC(=O)c1nc2ccccc2nc1Nc1ccc(OC)c(OC)c1	> 100 µM	> 100 µM	> 100 µM		> 100 µM	77 µM		> 100 µM	> 100 µM	> 100 µM	> 100 µM
CS(=O)(=O)c1c(N)c2nc(Cl)cn2c2nc3ccccc3nc12	> 100 µM		> 100 µM	> 100 µM	> 100 µM	> 100 µM		> 100 µM	> 100 µM		
COc1cc(C=C2C(C)=NN(c3cccc(Cl)c3)C23C(Cl)C(=O)N3c2nc3ccccc3s2)ccc1O (stereo not given)	9.16 µM	36 µM	12.5 µM	41.5 µM			> 100 µM	35 µM	55 µM	43 µM	26.7 µM
Cc1ccc2c(c1)C(=O)N1CCC[C@H]1C=N2	45.6 µM		22.5 µM	> 100 µM	> 100 µM		85.7 µM	> 85.2 µM	> 67 µM	31.5 µM	> 66.5 µM
CCOC(=O)Cc1csc2[n+]1C(=O)/C(=C/c1cccc(OC)c1O)S2	> 100 µM	> 100 µM		> 100 µM	> 100 µM	> 100 µM	> 100 µM	> 100 µM	> 100 µM		> 100 µM
Cc1oc(N)c(S(=O)(=O)c2ccc(Cl)cc2)c1C	> 100 µM	> 100 µM	> 100 µM	> 100 µM	> 100 µM	> 100 µM	> 100 µM	> 100 µM	> 100 µM	> 100 µM	
O=C1CC(=O)NC(=NN2C(=O)/C(=C/c3ccccc3)N=C2c2ccccc2)N1	> 100 µM		> 100 µM	> 100 µM		> 100 µM	> 100 µM	> 100 µM	> 100 µM	> 100 µM	> 100 µM
O=C1N2CCc3c([nH]c4ccccc34)C23CC2CCCCC12S3 (stereo not given)		> 100 µM	> 100 µM	> 100 µM	> 100 µM		> 100 µM	> 100 µM	> 100 µM	> 100 µM	> 100 µM
CC(=O)c1ccc2c(ccc(=O)n2C)c1	> 100 µM	> 100 µM	> 100 µM	> 100 µM	> 100 µM	> 100 µM	> 100 µM	> 100 µM			
Cc1ccc(C(=O)Nc2ccc(S(=O)(=O)O)c3cc(S(=O)(=O)O)cc(S(=O)(=O)O)c23)cc1NC(=S)Nc1cc(C(=O)Nc2ccc(S(=O)(=O)O)c3cc(S(=O)(=O)O)cc(S(=O)(=O)O)c23)ccc1C	> 75 µM	> 75 µM	> 75 µM	> 75 µM	> 75 µM	> 75 µM	> 75 µM	> 75 µM	> 75 µM		> 75 µM
c1ccc(P(CCP(c2ccccn2)c2ccccn2)c2ccccc2)cc1	> 100 µM	78.2 µM		> 100 µM	> 100 µM	54 µM	> 100 µM	> 100 µM	> 100 µM	> 100 µM	
CCN(CC)CCNC(=O)c1ccc(I)cc1	> 100 µM		> 100 µM	> 100 µM	> 100 µM	> 100 µM	> 100 µM	> 100 µM	> 100 µM	> 100 µM	> 100 µM
O=C(Cc1csc(N=Nc2c(O)[nH]c3ccccc23)n1)Nc1ccccc1	94.3 µM	94 µM		65.8 µM	85.4 µM	86.9 µM	> 100 µM	55.2 µM	93.3 µM		> 100 µM
CCN1C[C@]2(C)CC[C@H](OC)C34C1C([C@H](OC(C)=O)[C@@H]32)[C@@]1(OC)C[C@H](OC)[C@H]2C[C@@H]4[C@@H]1[C@H]2O	> 100 µM	> 100 µM	> 100 µM	> 100 µM	> 100 µM	> 100 µM	> 100 µM	> 100 µM	> 100 µM		
C/C(=N\Nc1nc2ccccc2n1C)c1cnccn1	> 100 µM	0.058 µM	> 35.8 µM	> 100 µM	> 100 µM	> 100 µM	> 100 µM	> 100 µM	> 100 µM		71.9 µM
NC(=O)c1coc(C2OC(CO)C(O)C2O)n1 (stereo not given)	> 100 µM	> 100 µM	> 100 µM		> 100 µM		> 100 µM	> 100 µM	> 100 µM		
N#CC(C#N)=C(N)/C(C#N)=C/c1ccc2ccccc2n1	> 100 µM			> 100 µM	77.7 µM	> 100 µM	> 100 µM		30.9 µM	65 µM	72.5 µM
CC(=O)Oc1cc2c(c3ncccc13)OC(C)(C)C2	> 100 µM		8.26 µM	74.8 µM		17.2 µM	26.3 µM	31.8 µM	> 100 µM	24.9 µM	24.4 µM
CCOC(=O)c1c(C)cc(=O)n2c1[nH]c1ccccc12	> 100 µM	> 100 µM		> 100 µM	> 100 µM		> 100 µM	> 100 µM	> 100 µM		> 100 µM
CCCC(=O)O[C@H]1C=C2C[C@@]34SS[C@]5(CC6=C[C@H](OC(C)=O)[C@@H]7O[C@@H]7[C@H]6N5C3=O)C(=O)N4[C@@H]2[C@H]2O[C@H]21	0.0194 µM	2.71 µM		0.907 µM	1.43 µM	0.331 µM	0.24 µM	0.113 µM	0.173 µM	18.6 µM	0.246 µM
COc1ccc(/C=C2\CCC(C)/C(=C\c3ccc(OC)c(OC)c3)C2=O)cc1OC (stereo not given)		5.93 µM		39.8 µM	39.3 µM		7.41 µM	> 100 µM	23.3 µM	88.3 µM	60.8 µM
